Test results taken from BigSolDB 2.1.

Conditions: 298.15 K

O=C(C(=O)c1ccccc1)c1ccccc1
Conditions	solubility (mole fraction)
in 2,2,2-trifluoroethanol	0.0352
in 2-butanone	0.184
in 2-methyl-1-pentanol	0.0139
in 3,7-dimethyl-1-octanol	0.0173
in DMSO	0.0228
in acetone	0.16
in acetonitrile	0.0635
in butyronitrile	0.151
in chlorobenzene	0.201
in cyclohexanone	0.241
in diethyl ether	0.0674
in diisopropyl ether	0.0309
in methyl acetate	0.152
in n-decane	0.00855
in n-decanol	0.0212
in n-hexadecane	0.0118
in propionitrile	0.129
in propylene carbonate	0.094
in tert-butanol	0.0106
